The record followed here is US8580941B2, “Epididymal lipocalin gene and uses thereof” (Vanderbilt University, priority 2000, dated 2013).

The subject of this test is mEP17 protein. Put plainly: Regulation of mEP17 protein expression (Western blotting and immunohistochemistry) in treated mice. Type of test: in vivo, mouse. An excerpt: The regulation of mEP17 protein expression was investigated using Western blotting and immunohistochemistry in castrated mice, castrated testosterone supplemented mice, unilateral castrated mice, unilateral cryptorchid mice, and busulphan-treated mice. As previously observed at the mRNA level (FIGS. 15A-15C), mEP17 protein disappeared from the initial segment two days after bilateral castration and was not restored by testosterone treatment. Similarly, after unilateral castration, mEP17 protein disappeared from the castrated side, but not from the non-castrated side.
To determine whether germ cell-associated testicular factors can regulate mEP17, spermatogenesis was disrupted using cryptorchidism or busulphan treatment. One month following cryptorchidism, mEP17 protein was not detected in the initial segment of the cryptorchid epididymis but was detected at normal levels in the scrotal epididymis. In cryptorchidism, the testis and the epididymis are exposed to abdominal temperature. To distinguish the effects of abdominal temperature on the testis or epididymis, spermatogenesis was also disrupted by busulphan treatment.
In general terms: A western blot detects proteins with antibodies after separation by electrophoresis.

Structures are written as SMILES.

`CS(=O)(=O)OCCCCOS(C)(=O)=O` [busulphan]: for the setting “busulphan-treated mice, following a 35-day treatment (disruption of spermatogenesis)”, the “level of mEP17 protein compared to untreated controls” value is recorded as “drastically reduced”.

Regarding `C[C@]12CC[C@H]3[C@@H](CCC4=CC(=O)CC[C@@]43C)[C@@H]1CC[C@@H]2O` [testosterone], the “mEP17 protein in the initial segment of the epididymis after testosterone treatment” value (castrated testosterone supplemented mice, protein disappeared two days after bilateral castration) is listed as “not restored”.
